From patent US6716865B1, “Benzoxa- and benzthiazoles” (Novartis AG, priority 1999, dated 2004) come the findings set out here.

pIC50: −log10 of the molar value.

For orientation: pIC50 means the negative decadic logarithm of the IC50, by convention in mol/L.

Assay [1] addresses T1, CHO cells stably transfected with human steroid sulfatase (CHO/STS) (Homo sapiens, UniProt P08842).
T1 construct: expressed in transfected cells; host or cells: CHO cells, stably transfected
T1 sequence (P08842 22-583): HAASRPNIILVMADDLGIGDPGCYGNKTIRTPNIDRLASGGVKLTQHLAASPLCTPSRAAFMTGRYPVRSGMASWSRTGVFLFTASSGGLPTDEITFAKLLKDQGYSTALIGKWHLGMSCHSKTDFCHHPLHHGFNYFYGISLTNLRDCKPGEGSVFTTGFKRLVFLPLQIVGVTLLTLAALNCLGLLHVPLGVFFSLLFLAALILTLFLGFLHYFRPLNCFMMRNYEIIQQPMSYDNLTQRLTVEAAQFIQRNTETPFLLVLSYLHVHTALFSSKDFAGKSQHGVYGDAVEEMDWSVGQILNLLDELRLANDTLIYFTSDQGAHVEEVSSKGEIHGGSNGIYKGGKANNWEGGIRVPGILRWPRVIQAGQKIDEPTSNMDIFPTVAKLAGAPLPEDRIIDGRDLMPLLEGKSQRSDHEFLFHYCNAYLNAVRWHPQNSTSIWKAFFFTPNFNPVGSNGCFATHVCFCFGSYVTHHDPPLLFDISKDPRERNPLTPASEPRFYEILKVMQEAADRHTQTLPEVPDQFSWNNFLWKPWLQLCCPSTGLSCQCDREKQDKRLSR
In words: Steroid sulfatase inhibition in the CHO/STS assay. The assay is classed as cell-based. Particulars: assay 2, CHO/STS cells, overnight incubation, MUS substrate. The procedure: 2. Steroid sulfatase inhibition in the CHO/STS assay:
CHO cells stably transfected with human steroid sulfatase (CHO/STS) are seeded into microtiter plates. After reaching approximately 90% confluency, they are incubated overnight with graded concentrations of test substances. They are then fixed with 4% paraformaldehyde for 10 minutes at room temperature and washed 4 times with PBS before incubation with 100 μl/well 0.5 mM 4-methylumbelliferyl sulfate (MUS) dissolved in 0.1M Tris-HCl, pH 7.5. The enzyme reaction is carried out at 37° C. for one hour. Then 50 μl/well stop solution (1M Tris-HCl, pH 10.4) are added. The enzyme reaction solutions are transferred to white plates (Microfluor, Dynex, Chantilly, Va., USA) and read in a Fluoroskan II fluroescence microtiter plate reader. Reagent blanks are subtracted from all values. For drug testing, the fluorescence units (FU) are divided by the optical density readings after staining cellular protein with sulforhodamine B (OD550) in order to correct for variations in cell number. IC50 values are determined by linear interpolation between two bracketing points. In each assay with inhibitors, estrone 3-O-sulfamate is run as a reference compound, and the IC50 values are normalized to estrone 3-O-sulfamate:
relative IC50=IC50 compound/IC50 estrone 3-O-sulfamate.

In assay [2] the target is T2, Purified human steroid sulfatase (Homo sapiens, UniProt P08842).
T2 sequence (P08842 22-583): T1 sequence (P08842 22-583)
The assay is described as follows: Steroid sulfatase inhibition in vitro (p-nitrocatechol sulfate cleavage).
Experimental: Steroid sulfatase inhibition in vitro:
Purified human steroid sulfatase not only is capable of cleaving steroid sulfates, but also readily cleaves aryl sulfates, such as p-nitrocatechol sulfate which is used herein. Assay mixtures are prepared by consecutively dispensing the following solutions into the wells of flat-bottom microtiter plates:
1) 50 μl inhibitor dilution in buffer (=0.1 M Tris-HCl, ph 7.5, 0.1% Triton X-100);
2) 50 μl substrate (=20 mM p-nitrocatechol sulfate in buffer)
3) 50 μl enzyme dilution to give a final concentration of 75 nM steroid sulfatase.
Plates are incubated at 37° C. for 30 minutes. The assay is stopped by addition of 100 μl of 1 N NaOH, and optical density measured in a microplate reader at 492 nm. […] IC50 values are calculated by nonlinear regression of the concentration/optical density data using the program Grafit (Erithacus Ltd.). Reported values are the result of three determinations.
From the fluorescence intensity data (I) obtained at different concentrations (c) of the test compound, the concentration inhibiting the enzymatic activity at 50% (IC50) is calculated using the equation [formula]
Relative IC50 values (rel IC50) are defined as follows: [formula]

On to `NS(=O)(=O)Oc1ccc2nc(C=C3C4CC5CC(C4)CC3C5)oc2c1` [Example 12, sulfamic acid 2-(adamantan-2-ylidenemethyl)benzoxazol-6-yl ester], for which the “rel IC50 (IC50 compound/IC50 estrone 3-O-sulfamate)” value in assay [1] is given as 1.25. Moreover, the pIC50 in assay [2] is ~6.01.
